The results in this text go back to patent US10406086B2, “Moisturizer and cosmetic including the same” (AJINOMOTO CO., INC., priority 2015, dated 2019).

The test system of one series is filaggrin gene. The experiment in a line: Filaggrin gene expression test by acyl valines or acyl alanines (real time PCR, 24 hours). The conditions noted are these: Homo sapiens. Format: cell-based. As to the method:
Human normal epidermal keratinocytes NHEK (NB) (manufactured by KURABO INDUSTRIES LTD.) were precultured with HuMedia-KG2 (manufactured by KURABO INDUSTRIES LTD.) and the precultured human normal epidermal keratinocytes were adjusted in a concentration of 15×10^4 cells/mL. After adjusting the concentration, 2 mL of the culture solution (that is, 30×10^4 cells/well) was poured to a plate having 6 wells and the poured culture solution was cultivated for 1 day. […] C12Ala), decanoyl-alanine (Example 21: C10Ala), octanoyl-alanine (Example 22: C8Ala), hexanoyl-alanine (Example 23: C6Ala), and butanoyl-alanine (Example 24: C4Ala)) were added to the wells so that each of the samples has the concentration illustrated in respective graphs and the added samples were reacted for 24 hours. After the reaction, entire RNA was extracted from the cells and subjected to reverse transcription. The amplified amounts of the target gene (filaggrin) were measured by real time PCR (n=2). […] GAPDH was used as a corrected gene. Calculation was carried out using a comparative CT method. TaqMan (registered trademark) Gene Expression was used as a primer and a probe and FAM was used as a fluorescent dye. The following evaluation was carried out depending on the amplified amounts. The results are listed in Table 2 and 3 and illustrated in FIGS. 4 and 5.
A general note: Real-time PCR tracks product formation cycle by cycle.

The subject of series [1] is Human normal epidermal keratinocytes NHEK (NB). Description: Cytotoxicity test (Neutral Red, cell survival rate). Format: cell-based. The following applies: 500 μM, 24 hours; for Cell survival rate (%): relative to light absorbance of the control. As to the method: Human normal epidermal keratinocytes NHEK (NB) (manufactured by KURABO INDUSTRIES LTD.) were precultured with HuMedia-KG2 (manufactured by KURABO INDUSTRIES LTD.) and the precultured human normal epidermal keratinocytes were adjusted in a concentration of 15×10^4 cells/mL. After adjusting the concentration, 2 mL of the culture solution (that is, 30×10^4 cells/well) was poured to a plate having 6 wells and the poured culture solution was cultivated for 1 day. Samples (lauroyl-valine (Example 25: C12Val), decanoyl-valine (Example 26: C10Val), octanoyl-valine (Example 27: C8Val), hexanoyl-valine (Example 28: C6Val), butanoyl-valine (Example 29: C4Val), and acetyl-valine (Example 30: C2Val)) were added to the wells so that each of the samples has the concentration illustrated in respective graphs and the added samples were reacted for 24 hours. Thereafter, the culture medium was discarded and replaced with 2 mL/well of Neutral Red solution. The resultant sample was further cultured for 2 hours. As the Neutral Red solution, a solution prepared by diluting Neutral Red (manufactured by KURABO INDUSTRIES LTD.) with HuMedia-KG2 culture medium/normal saline solution (2:1) to 1/100 was used. The cells stained with the Neutral Red solution were washed with PBS (-) one time, thereafter fixed by 1.5 mL/well of 1% CaCl2/1% formalin solution, extracted by adding 1.5 mL/well of 1% acetic acid/50% ethanol solution at room temperature for 20 minutes. The light absorbance of the resultant sample was measured using a plate reader at 540/630 nm.
The following evaluation was carried out depending on the cell survival rates. The results are listed in Table 4 and illustrated in FIG. 6.

A short description of series [2]: Moisture absorption/retention test. In kind it is physicochemical. The following applies: for Increased weight ratio after 7 days at 35% RH (%) (B): following 65% RH; for moisturizing power: compared with glycerol and sorbitol; for (B)/(A) × 100(%): ratio of weight increase at 35% RH to that at 65% RH. An excerpt:
About 1 g of each compound was precisely weighed in a weighing bottle and the weighed samples were placed in a constant-temperature and constant-humidity chamber (LH-30-10, manufactured by NAGANO SCIENCE CO, LTD.) in which the humidity was set to 65% RH to measure a weight increase ratio (A) after 7 days. Subsequently, the same samples were placed in the constant-temperature and constant-humidity chamber in which the humidity was set to 35% RH to measure a weight increase ratio (B) after 7 days. It can be considered that, as the ratio of (B) to (A) becomes higher, more moisture can be retained even when the environment becomes low humidity and thus that the compound having the higher value of the ratio can be considered as a compound having higher moisturizing power.

[3] abbreviates: 24 hours, NHEK (NB), control = 100%, read-out: Amplified amount (%).
Where [4] appears, read: 24 hours, NHEK (NB), read-out: Evaluation (amplified amount).
Setting [5] is: 10 μM, 24 hours, NHEK (NB), control = 100%, read-out: Amplified amount (%).
Where [6] appears, read: 10 μM, 24 hours, NHEK (NB), read-out: Evaluation (amplified amount).

Read-outs that look alike come from different tables or passages of the source.

In the case of `CCCCCCCC(=O)N[C@@H](C)C(=O)O` [Example 22, octanoyl-alanine], the activity at 500 µM is 256% with filaggrin gene (setting [3]) and > 200% in the series with filaggrin gene (setting [4]).
Take `CCCCCC(=O)N[C@@H](C)C(=O)O` [Example 23, hexanoyl-alanine]: the values for the activity at 500 µM in the series on filaggrin gene (setting [3]) and in the series with filaggrin gene (setting [4]) were 125% and 100 to 200%, respectively.
Take `CCCCCCCC(=O)N[C@H](C(=O)O)C(C)C` [Example 16, octanoyl-valine]: in the series on filaggrin gene (setting [3]), the activity at 500 µM is 302%. The activity at 500 µM in the series with filaggrin gene (setting [4]) is > 200%. For the same compound, in series [1], the “Evaluation (cell survival rate)” value is “A (99% or higher)” and the “Cell survival rate (%)” value is 100%.
Regarding `CC(=O)N[C@H](C(=O)O)C(C)C` [Example 19, acetyl-valine], the activity at 500 µM in the series with filaggrin gene (setting [3]) is 141%; in the series with filaggrin gene (setting [4]), 100 to 200%. Besides, in series [1], the “Evaluation (cell survival rate)” value was “A (99% or higher)”. The “Cell survival rate (%)” value in series [1] is recorded as 105%.
With `CCCC(=O)N[C@@H](C)C(=O)O` [Example 24, butanoyl-alanine], the activity at 500 µM is 162% in the series on filaggrin gene (setting [3]) and 100 to 200% with filaggrin gene (setting [4]).
Consider `CCCCCC(=O)N[C@H](C(=O)O)C(C)C` [Example 17, hexanoyl-valine], for which the activity at 500 µM in the series on filaggrin gene (setting [3]) was 112%; in the series on filaggrin gene (setting [4]) it was 100 to 200%. The “Evaluation (cell survival rate)” value in series [1] is listed as “A (99% or higher)”. In addition, the “Cell survival rate (%)” value in series [1] was determined as 99%.
`CCCCCCCCCC(=O)N[C@H](C(=O)O)C(C)C` [Example 15, decanoyl-valine]: the activity at 10 µM with filaggrin gene (setting [5]) amounted to 171%. Moreover, in the series with filaggrin gene (setting [6]), the activity at 10 µM is 100 to 200%. In series [1], the “Evaluation (cell survival rate)” value is “B (75% or higher and lower than 99%)”; the “Cell survival rate (%)” value was found to be 75%.
Turning to `CCCCCCCC(=O)N[C@@H](C)C(=O)[O-].[Na+]` [Example 13, N-octanoyl-L-alanine sodium salt], in series [2], the “Increased weight ratio after 7 days at 35% RH (%) (B)” value (shortened to “Increased weight ratio … (%) (B)”) came to 10.6%, the “Increased weight Ratio after 7 days at 65% RH (%) (A)” value (from here on “Increased weight Ratio … (%) (A)”) amounted to 29.6%, the moisturizing power result is reported as “high moisturizing power” and the “(B)/(A) × 100(%)” value was 35.9%.
For the compound `CCCC(=O)N[C@H](C(=O)O)C(C)C` [Example 18, butanoyl-valine], the activity at 500 µM with filaggrin gene (setting [3]) is 126%. Also, in the series on filaggrin gene (setting [4]), the activity at 500 µM is 100 to 200%. In addition, in series [1], the “Evaluation (cell survival rate)” value is on record as “A (99% or higher)” and the “Cell survival rate (%)” value worked out at 102%.
Consider `CCCCCCCCCC(=O)N[C@@H](C)C(=O)O` [Example 21, decanoyl-alanine], for which the activity at 10 µM in the series with filaggrin gene (setting [5]) was 117%; in the series on filaggrin gene (setting [6]), 100 to 200%.
Take `CCCCCCCC(=O)N[C@H](C(=O)[O-])C(C)C.[Na+]` [Example 12, N-octanoyl-L-valine sodium salt]: in series [2], the “Increased weight ratio … (%) (B)” value is recorded as 8.4%, the “Increased weight Ratio … (%) (A)” value worked out at 25.4%, the moisturizing power entry is listed as “high moisturizing power” and the “(B)/(A) × 100(%)” value is reported as 33.2%.
As to `OCC(O)CO` [Comparative Example 3, Glycerol, reference compound], in series [2], the “Increased weight ratio … (%) (B)” value is on record as 13.2%, the “Increased weight Ratio … (%) (A)” value is 48.1% and the “(B)/(A) × 100(%)” value is on record as 27.4%.
`CCCCCCCCCCCC(=O)N[C@H](C(=O)O)C(C)C` [Example 14, lauroyl-valine]: the activity at 10 µM with filaggrin gene (setting [5]) came out at 200%. In the series with filaggrin gene (setting [6]), the activity at 10 µM is > 200%. For the same compound, in series [1], the “Evaluation (cell survival rate)” value is recorded as “D (Lower than 50%)” and the “Cell survival rate (%)” value came out at 3%. In series [1] (in words), the cytotoxicity entry is “high”.
In the case of `OC[C@@H](O)[C@@H](O)[C@H](O)[C@@H](O)CO` [Comparative Example 4, Sorbitol, reference compound], in series [2], the “Increased weight ratio … (%) (B)” value is reported as 0.5%, the “Increased weight Ratio … (%) (A)” value amounted to 4.2% and the “(B)/(A) × 100(%)” value was 12.0%.
Regarding `CCCCCCCCCCCC(=O)N[C@@H](C)C(=O)O` [Example 20, lauroyl-alanine], the activity at 10 µM in the series with filaggrin gene (NHEK, 24 h, read-out: Amplified amount (%)) is 128%; with filaggrin gene (NHEK, 24 h, read-out: Evaluation (amplified amount)) it was 100 to 200%.
